Test results: PubChem BioAssay AID1963451 (Molecular Pharmacology Branch, DTP, NCI, 2024)

Test system: 521955-158-R6-J3-PDC complex spheroid growth, % test/control
Assay: Anticancer human tumor 521955-158-R6-J3-PDC patient-derived pancreatic carcinoma cell line growth inhibition [Asc]
Conditions: for viability, T/C: stronger effect = lower value; active means viability on the fitted dose curve at most 10% of control; inactive means the rest
Summary of the method: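 Stromal components (HUVEC and hMSC) are co-assembled with the cancer cells into multicellular spheroids. Drugs are then added singly or paired, at concentrations falling by half-log increments from a clinically achievable maximum, capped at 10 microM without known Cmax.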
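Further: spheroids exposed to compounds for 7 days.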
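Wherever viability, T/C is given: 100% = DMSO vehicle control wells.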

CNC(C)C(=O)NC1CN(S(=O)(=O)c2cccc(S(=O)(=O)N3CCC4CCC(C(=O)NC(c5ccccc5)c5ccccc5)N4C(=O)C(NC(=O)C(C)NC)C3)c2)CCC2CCC(C(=O)NC(c3ccccc3)c3ccccc3)N2C1=O (centres undefined)
> 1000 nM: IC50 (compound alone, run of 11/15/2022) | IC50 (curve of compound)

CNC(C)C(=O)NC1CN(S(=O)(=O)c2cccc(S(=O)(=O)N3CCC4CCC(C(=O)NC(c5ccccc5)c5ccccc5)N4C(=O)C(NC(=O)C(C)NC)C3)c2)CCC2CCC(C(=O)NC(c3ccccc3)c3ccccc3)N2C1=O (centres undefined) + Cc1c(S(C)(=O)=O)c(-c2cc(F)cc(N3CCN(c4ccc(NS(=O)(=O)c5ccc(NC(CCN6CCC(C(=O)OCCCP(=O)(O)O)CC6)CSc6ccccc6)c(S(=O)(=O)C(F)(F)F)c5)cc4)CC3)c2)c(-c2ccc(Cl)cc2)n1C(C)C
> 1000 nM: IC50 (curve of first compound, second compound 0.0316 µM) | IC50 (curve of first compound, second compound 0.1 µM)
5.02 nM: IC50 (curve of first compound, second compound 0.316 µM)
inactive: viability, T/C (second compound 0.0316 µM, first compound 0.00316 µM) 101% | viability, T/C (second compound 0.0316 µM, first compound 0.01 µM) 90.1% | viability, T/C (second compound 0.0316 µM, first compound 0.0316 µM) 80.1% | viability, T/C (second compound 0.0316 µM, first compound 0.1 µM) 72.5% | viability, T/C (second compound 0.0316 µM, first compound 0.316 µM) 67.3% | viability, T/C (second compound 0.0316 µM, first compound 1 µM) 60.4% | viability, T/C (second compound 0.1 µM, first compound 0.00316 µM) 93.4% | viability, T/C (second compound 0.1 µM, first compound 0.01 µM) 64.7% | viability, T/C (second compound 0.1 µM, first compound 0.0316 µM) 57.1% | viability, T/C (second compound 0.1 µM, first compound 0.1 µM) 56.4% | viability, T/C (second compound 0.1 µM, first compound 0.316 µM) 51.4% | viability, T/C (second compound 0.1 µM, first compound 1 µM) 55.4% | viability, T/C (second compound 0.316 µM, first compound 0.00316 µM) 57.3% | viability, T/C (second compound 0.316 µM, first compound 0.01 µM) 38.4% | viability, T/C (second compound 0.316 µM, first compound 0.0316 µM) 42.8% | viability, T/C (second compound 0.316 µM, first compound 0.1 µM) 39.4% | viability, T/C (second compound 0.316 µM, first compound 0.316 µM) 35.7% | viability, T/C (second compound 0.316 µM, first compound 1 µM) 35.5% | viability, T/C (second compound 1 µM, first compound 0.00316 µM) 31.6% | viability, T/C (second compound 1 µM, first compound 0.01 µM) 23.8% | viability, T/C (second compound 1 µM, first compound 0.0316 µM) 29.6% | viability, T/C (second compound 1 µM, first compound 0.1 µM) 19.9% | viability, T/C (second compound 1 µM, first compound 0.316 µM) 25.4% | viability, T/C (second compound 1 µM, first compound 1 µM) 21.1% | viability, T/C (second compound 3.16 µM, first compound 0.00316 µM) 14.6% | viability, T/C (second compound 3.16 µM, first compound 0.01 µM) 13% | viability, T/C (second compound 3.16 µM, first compound 0.0316 µM) 16.9% | viability, T/C (second compound 3.16 µM, first compound 0.1 µM) 14.1% | viability, T/C (second compound 3.16 µM, first compound 0.316 µM) 12.3% | viability, T/C (second compound 3.16 µM, first compound 1 µM) 13.3% | viability, T/C (second compound 10 µM, first compound 0.00316 µM) 10.6%
active: viability, T/C (second compound 10 µM, first compound 0.01 µM) 12% | viability, T/C (second compound 10 µM, first compound 0.0316 µM) 8.73% | viability, T/C (second compound 10 µM, first compound 0.1 µM) 9.27% | viability, T/C (second compound 10 µM, first compound 0.316 µM) 10.4% | viability, T/C (second compound 10 µM, first compound 1 µM) 6.75%
< 3.16 nM: IC50 (curve of first compound, second compound 1 µM) | IC50 (curve of first compound, second compound 3.16 µM) | IC50 (curve of first compound, second compound 10 µM)
